Several values for one entry are separate records, joined by “and”; a condition that tells them apart may be missing. Equal values may be shown once.
How the values were obtained:
[1] = Glucose- and peroxidation-induced cholesterol domain formation, small angle x-ray diffraction (Example 4); details: 1:30 drug-to-phospholipid, glucose 200 mg/dL
Description: Samples were shell-dried under nitrogen gas and placed under vacuum for 1 h to remove residual solvent. […] Lipid suspensions were then vortexed for 3 min at ambient temperature to form MLVs. […] Membrane lipid vesicles were oriented for x-ray diffraction analysis as described by others (e.g., Herbette et al., Biophys. […] Briefly, a 100 μL aliquot (containing 250 μg MLV) was aspirated from each sample and transferred to a Lucite® sedimentation cell fitted with an aluminum foil substrate upon which a given sample could be collected by centrifugation. Samples were then loaded into a Sorvall AH-629 swinging bucket rotor (DuPont Corp., Wilmington, Del.) and centrifuged at 35,000 g, 5° C., for 90 min. After centrifugal orientation, sample supernatants were aspirated and aluminum foil substrates, each supporting a single membrane pellet, were removed from the sedimentation cells. […] The d-space for any given membrane multibilayer is a measurement of the unit cell periodicity of the membrane lipid bilayer (e.g., the distance from the center of one lipid bilayer to the next including surface hydration), and is calculated from Bragg's Law, […], where h is the diffraction order, λ is the wavelength of the x-ray radiation (1.54 Å), d is the membrane lipid bilayer unit cell periodicity, and θ is the Bragg angle equal to one-half the angle between the incident beam and scattered beam. […]

human sdLDL [2] = test: Copper-induced sdLDL oxidation, TBARS after 2 hr (Example 6); type: biochemical
Description: (§1) Venous blood was collected from healthy volunteers into vacutainer tubes containing sodium EDTA. Plasma was separated by centrifugation at 3000 g for 25 min at 4° C. and adjusted to a density of 1.020 g/mL with KBr. Triglyceride-rich lipoproteins (TGRL) and LDL fractions were then isolated by sequential centrifugation at 70,000 rpm at 4° C. in a Beckman LE-80 ultracentrifuge using a Beckman 50.4Ti rotor (Beckman Coulter, Inc., Fullerton, Calif.). The TGRL fraction (with a relative density of <1.020) was aspirated from the top of the centrifugate and discarded, leaving an LDL-enriched infranate (with a relative density of 1.020 to 1.063). The plasma LDL fraction was further fractionated into LDL1, LDL2, LDL3, and LDL4 (sdLDL) subfractions with relative densities of 1.020 to 1.035, 1.035 to 1.050, 1.050 to 1.063, and 1.063 to 1.075, respectively. The sdLDL subfraction was retained for additional experimentation. Plasma and lipoprotein fractions were maintained at 4° C. and protected from excessive exposure to light. Prior to oxidation experiments, EDTA was removed from the lipoprotein fraction using PD-10 desalting columns (GE Healthcare, Piscataway N.J.). After equilibration of the column with phosphate buffered saline (PBS), 2.5 mL of the lipoprotein fraction was loaded on the column and the flow-through discarded. The lipoprotein was then eluted with 3 mL of PBS. The LDL fractions were further diluted with PBS to obtain a 100 μg/mL apoB100 concentration.
LDL and sdLDL subfractions (0.6 mL each) were incubated with either 10 μL vehicle (ethanol) or 10 μL drug stock solution for 30 min to 1 hr at 37° C. Oxidation was initiated by the addition of 10 μM CuSO4. After 2 hr, 100 μL aliquots were removed from each subfraction and combined with 1.0 mL thiobarbituric acid (0.5%), 10 μL trichloroacetic acid (5%), 10 μL BHT (5 mg/mL in methanol), and 10 μL EDTA (5 mM). […]. Sample TBARS concentrations were determined spectrophotometrically by measuring sample absorbances against a standard curve derived from the hydrolysis of 1,1,3,3-tetramethoxypropane.

human LDL [3] = test: Copper-induced oxidation of unfractionated LDL, TBARS after 2 hr (Example 6); type: biochemical
Description: as §1, with “Prior to oxidation experiments, EDTA was removed from the lipoprotein fraction using PD-10 desalting columns (GE Healthcare, Piscataway N.J.). After equilibration of the column with phosphate buffered saline (PBS), 2.5 mL of the lipoprotein fraction was loaded on the column and the flow-through discarded. The lipoprotein was then eluted with 3 mL of PBS. The LDL fractions were further diluted with PBS to obtain a 100 μg/mL apoB100 concentration.” left out
LDL and sdLDL subfractions (0.6 mL each) were incubated with either 10 μL vehicle (ethanol) or 10 μL drug stock solution for 30 min to 1 hr at 37° C. […] Sample TBARS concentrations were determined spectrophotometrically by measuring sample absorbances against a standard curve derived from the hydrolysis of 1,1,3,3-tetramethoxypropane.

human sdLDL [4] = test: Copper-induced sdLDL oxidation, TBARS (Example 7); type: biochemical
Description: An experiment to study the antioxidant effect of EPA in LDL and small dense LDL (“sdLDL”) was performed. LDL and sdLDL were isolated from the plasma of healthy volunteers by iodixanol density gradient ultracentrifugation, and adjusted to a final apolipoprotein concentration of 2 mg/mL. […] Lipid oxidation was initiated with 10 μM CuSO4 and monitored by the colorimetric detection of thiobarbituric acid reactive substances (TBARS) for 1 hr. Vitamin E was also incubated with sample aliquots as a positive control.

human LDL [5] = test: Copper-induced oxidation of unfractionated LDL, TBARS (Example 7); type: biochemical; details: 1 hour
Description: An experiment to study the antioxidant effect of EPA in LDL and small dense LDL (“sdLDL”) was performed. LDL and sdLDL were isolated from the plasma of healthy volunteers by iodixanol density gradient ultracentrifugation, and adjusted to a final apolipoprotein concentration of 2 mg/mL. […] Vitamin E was also incubated with sample aliquots as a positive control.

For CC/C=C\C/C=C\C/C=C\C/C=C\C/C=C\CCCC(=O)O [EPA, cis-5,8,11,14,17-eicosapentaenoic acid], the “inhibition of relative cholesterol domain peak intensity” value ([1]; 96-hour time point, vs vehicle or vitamin E) was “more than 99%”, the “reduction of TBARS levels compared to vehicle-treated controls” value (“reduction … to vehicle-treated controls” for short) (human sdLDL [2]; 10.0 μM) was 57% and the “reduction … to vehicle-treated controls” value (human sdLDL [2]; lowest dose tested (1.0)) was 13%. For the same compound, the “reduction of TBARS levels” value (human LDL [3]; highest concentration tested (10.0), unfractionated LDL) was 17%, the “inhibition of sdLDL oxidation” value (human sdLDL [4]; 1.0 μM, 1 hr, vs vehicle) was 19±8% and the “inhibition of TBARS formation / sdLDL oxidation” value (human sdLDL [4]; 10 μM, 1 hr, vs vehicle, 10 µM) was 93±2% and 92±8%. The “effect on sdLDL oxidation compared to vehicle or DHA” value (human sdLDL [4]; 10.0 μM, after 4 hours) was “significantly inhibited sdLDL oxidation”, the IC50 (human sdLDL [4]; 1 hr) was roughly 2000 nM and the “inhibition of TBARS formation compared to vehicle-treated control” value (human LDL [5]; highest treatment concentration (10)) was greater than 90%.
With Cc1c(C)c2c(c(C)c1O)CC[C@@](C)(CCC[C@H](C)CCC[C@H](C)CCCC(C)C)O2 [vitamin E, α-tocopherol, reference compound] the “effect on cholesterol domain formation compared to control” value ([1]; any experimental time point) was “no significant effect on cholesterol domain formation”, the “reduction … to vehicle-treated controls” value (human sdLDL [2]; 10.0 μM) was 26% and the “effect on sdLDL oxidation” value (human sdLDL [2]; concentrations 1.0 μM to 10.0 μM) was “did not inhibit sdLDL oxidation except at the highest concentration”. The “effect on LDL oxidation” value (human LDL [3]; 1.0 μM to 10.0 μM, data not shown) was “did not inhibit LDL oxidation at any concentration”, the “effect on sdLDL oxidation compared to vehicle-treated controls” value (human sdLDL [4]; 10 μM, 1 hour) was “no significant effect on sdLDL oxidation” and the “effect on unfractionated LDL oxidation” value (human LDL [5]; 10 μM) was “no significant effect on unfractionated LDL oxidation”.
